Data published in publication PMC11280325, “Design, Synthesis, and Characterization of Novel Thiazolidine-2,4-Dione-Acridine Hybrids as Antitumor Agents” (Molecules, 2024).

Legend:
[1] = tested on: PATU; assay: MTT assay, PATU 8902; type: cell-based, human; conditions: pancreas adenocarcinoma, 48 h incubation
Method in brief: (§1)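 Growth media: RPMI 1640 for HeLa and HCT116, DMEM for A2058 and PATU 8902, each with 10% FBS. After 48 h treatment at 5, 10, 20 or 50 µmol/L, viability was measured by MTT reduction at 540 nm.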

[2] = tested on: A549; assay: MTT assay, A549; type: cell-based, human; conditions: lung adenocarcinoma, 48 h incubation
Method in brief: (§2)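 5–10 × 10^3 cells/well, 24 h attach → compound 5, 10, 20, 50 µmol/L in medium, 48 h → MTT → 10% SDS, 24 h → A540. IC50 by nonlinear regression, n ≥ 3.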

[3] = tested on: HCT116; assay: MTT assay, HCT116; type: cell-based, human; conditions: colorectal adenocarcinoma, 48 h incubation
Method in brief: as §1

[4] = tested on: Bj-5ta; assay: MTT assay, BJ-5ta non-cancerous fibroblasts; type: cell-based, human; conditions: non-cancerous dermal fibroblasts, 48 h incubation
Method in brief: (§3)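 Human MCF-10A breast epithelial and BJ-5ta dermal fibroblast cells seeded 24 h, then exposed to compounds at 5, 10, 20 and 50 µmol/L for 48 h at 37 °C. MTT with SDS solubilization, absorbance 540 nm. IC50 from nonlinear regression, ≥3 independent repeats.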

[5] = tested on: HeLa; assay: MTT assay, HeLa; type: cell-based, human; conditions: cervical adenocarcinoma, 48 h incubation
Method in brief: as §1

[6] = tested on: A2058; assay: MTT assay, A2058; type: cell-based; conditions: human melanoma, 48 h incubation
Method in brief: as §1

[7] = target: T1, bovine serum albumin (BSA) (Bos taurus, UniProt P02769); assay: BSA fluorescence quenching (Stern–Volmer); type: binding
T1 construct: purchased Sigma-Aldrich
T1 sequence (P02769 25-607): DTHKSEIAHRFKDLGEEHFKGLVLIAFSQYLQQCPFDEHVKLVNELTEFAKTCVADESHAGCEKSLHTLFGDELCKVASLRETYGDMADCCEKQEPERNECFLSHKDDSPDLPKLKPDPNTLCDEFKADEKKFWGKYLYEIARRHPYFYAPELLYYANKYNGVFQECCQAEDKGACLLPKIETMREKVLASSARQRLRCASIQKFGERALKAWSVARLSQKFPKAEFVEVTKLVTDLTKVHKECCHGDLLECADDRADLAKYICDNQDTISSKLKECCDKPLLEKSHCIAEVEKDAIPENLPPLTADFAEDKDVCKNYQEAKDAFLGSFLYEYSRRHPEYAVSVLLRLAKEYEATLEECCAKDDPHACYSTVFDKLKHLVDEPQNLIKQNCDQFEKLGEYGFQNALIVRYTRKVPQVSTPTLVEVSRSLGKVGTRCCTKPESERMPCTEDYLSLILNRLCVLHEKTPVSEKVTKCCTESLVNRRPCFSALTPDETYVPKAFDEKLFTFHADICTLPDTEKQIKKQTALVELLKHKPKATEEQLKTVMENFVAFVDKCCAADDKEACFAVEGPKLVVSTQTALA
Source text: BSA contains 582 amino acid residues, including tyrosine (Tyr), phenylalanine (Phe), and tryptophan (Trp). The tryptophan residues located at positions 134 and 212 being predominantly responsible for its intrinsic fluorescence due to their higher quantum yield than the other amino acids. When excitation occurs at 280 nm, both Trp and Tyr contribute to the fluorescence of the protein [44]. In this study, we investigated the interaction of newly synthesized derivatives (7e·2HCl, 12d·2HCl, 13c·HCl, and 13d), which have promising anticancer properties, with BSA. BSA (1 μM) was titrated with increasing concentration of acridine derivatives, and fluorescence spectra were recorded in the range of 300–500 nm (Figure 10). The fluorescence quenching for the quencher (Q) and protein interaction was analyzed using the Stern–Volmer equation [45, 46]: F0/F=1+Ksv [Q]=1+Kq τ0[Q] where F0 and F denote the fluorescence intensities in the absence and presence of the quencher Q, respectively. Ksv is the Stern–Volmer constant, kq is the bimolecular quenching rate constant (kq = Ksv/τ0), and τ0 is the lifetime of BSA in the absence of quencher, which is equal to 10^−8 s for the tryptophan fluorescence of proteins.
The fluorescence spectra were recorded using a Varian Cary Eclipse spectrofluorometer (Palo Alto, CA, USA) in a 10 mM phosphate-buffered saline solution (pH = 7.4) at 24 °C. The spectra were measured with an excitation wavelength of 280 nm using a slit width of 10 nm for both the excitation and emission beams over a range of 300–450 nm. Spectrofluorometric BSA titrations were performed with increasing concentrations of acridine derivatives.

[8] = tested on: Hep G2; assay: MTT assay, Hep G2; type: cell-based, human; conditions: hepatocellular carcinoma, 48 h incubation
Method in brief: as §2

[9] = tested on: MCF-10A; assay: MTT assay, MCF-10A non-cancerous cells; type: cell-based, human; conditions: Homo sapiens, MCF-10A, 48 h, non-cancerous epithelial breast cells, 48 h incubation
Method in brief: as §3

[10] = tested on: A2780; assay: MTT assay, A2780; type: cell-based, human; conditions: Homo sapiens, A2780, 48 h, ovarian adenocarcinoma, 48 h incubation
Method in brief: as §2

IC50 [2] | IC50 [3] | IC50 [5] | Stern–Volmer quenching constant Ksv ([7]; BSA 1 μM, excitation 280 nm, PBS pH 7.4, 24 °C) | bimolecular quenching rate constant kq ([7]; kq = Ksv/τ0, τ0 = 10^−8 s, BSA, pH 7.4, 24 °C) | melting point | IC50 ([2]; Homo sapiens, A549, 48 h) | IC50 ([3]; Homo sapiens, HCT-116, 48 h) | IC50 [10] | IC50 ([5]; Homo sapiens, HeLa, 48 h) | Compound | IC50 [1] | IC50 [4] | IC50 [6] | IC50 [8] | IC50 ([1]; Homo sapiens, PaTu 8902, 48 h) | IC50 ([4]; Homo sapiens, Fibroblast, 48 h) | IC50 [9] | IC50 ([6]; Homo sapiens, A2058, 48 h) | IC50 ([8]; Homo sapiens, HepG2, 48 h)
> 50 µM | 17.6 ± 4.5 µM | 19.3 ± 5.5 µM | 10.47 × 10^4 [M^−1] | 10.47 × 10^12 [M^−1·s^−1] | – | – | – | – | – | COc1cc(/C=C2\SC(=O)N(Cc3c4ccccc4nc4ccccc34)C2=O)ccc1OCC(=O)Nc1ccc([N+](=O)[O-])cc1.Cl.Cl [12d·2HCl, 2-(4-{[(5Z)-3-[(Acridin-9-yl)methyl]-2,4-dioxo-1,3-thiazolidin-5-ylidene]methyl}-2-methoxyphenoxy)-N-(4-nitrophenyl)acetamide dihydrochloride] | 30.8 ± 6.2 µM | > 50 µM | > 50 µM | > 50 µM | – | – | – | – | –
– | – | 9.4 ± 0.3 µM | – | – | 288 to 290 °C | 31.2 ± 1.1 µM | 14.6 ± 1.7 µM | > 50 µM | – | COc1cc(/C=C2\SC(=O)N(Cc3c4ccccc4nc4ccccc34)C2=O)ccc1OCC(=O)Nc1ccc([N+](=O)[O-])cc1 [Compound 12d, 2-(4-{[(5Z)-3-[(Acridin-9-yl)methyl]-2,4-dioxo-1,3-thiazolidin-5-ylidene]methyl}-2-methoxyphenoxy)-N-(4-nitrophenyl)acetamide] | – | – | – | – | > 50 µM | > 50 µM | > 50 µM | > 50 µM | > 50 µM
– | 14.3 ± 1.8 µM | 28.2 ± 3.7 µM | – | – | 255 to 256 °C | 31.1 ± 4.2 µM | – | > 50 µM | – | COc1cc(/C=C2\SC(=O)N(Cc3c4ccccc4nc4ccccc34)C2=O)ccc1OCC(=O)Nc1ccccc1C(F)(F)F [Compound 12e, 2-(4-{[(5Z)-3-[(Acridin-9-yl)methyl]-2,4-dioxo-1,3-thiazolidin-5-ylidene]methyl}-2-methoxyphenoxy)-N-[2-(trifluoromethyl)phenyl]acetamide] | – | – | – | – | > 50 µM | > 50 µM | > 50 µM | > 50 µM | > 50 µM
– | > 50 µM | – | – | – | 269 to 270 °C | > 50 µM | – | > 50 µM | 11.5 ± 3.3 µM | COc1cc(/C=C2\SC(=O)N(Cc3c4ccccc4nc4ccccc34)C2=O)ccc1OCC(=O)Nc1cccc(C(F)(F)F)c1 [Compound 12f, 2-(4-{[(5Z)-3-[(Acridin-9-yl)methyl]-2,4-dioxo-1,3-thiazolidin-5-ylidene]methyl}-2-methoxyphenoxy)-N-[3-(trifluoromethyl)phenyl]acetamide] | – | – | – | – | > 50 µM | > 50 µM | > 50 µM | > 50 µM | > 50 µM
– | 6.7 ± 2 µM | – | – | – | 287 to 288 °C | > 50 µM | – | > 50 µM | 20.7 ± 5.3 µM | COc1cc(/C=C2\SC(=O)N(Cc3c4ccccc4nc4ccccc34)C2=O)ccc1OCC(=O)Nc1cc(C(F)(F)F)cc(C(F)(F)F)c1 [Compound 12g, 2-(4-{[(5Z)-3-[(Acridin-9-yl)methyl]-2,4-dioxo-1,3-thiazolidin-5-ylidene]methyl}-2-methoxyphenoxy)-N-[3,5-bis(trifluoromethyl)phenyl]acetamide] | – | – | – | – | > 50 µM | > 50 µM | > 50 µM | > 50 µM | > 50 µM
– | – | – | – | – | 213 to 214 °C | > 50 µM | > 50 µM | > 50 µM | 41.9 ± 5.7 µM | COc1cc(/C=C2\SC(=O)N(Cc3cccc4cc5ccccc5nc34)C2=O)ccc1OCC(=O)Nc1ccccc1 [Compound 13a, 2-(4-{[(5Z)-3-[(Acridin-4-yl)methyl]-2,4-dioxo-1,3-thiazolidin-5-ylidene]methyl}-2-methoxyphenoxy)-N-phenylacetamide] | – | – | – | – | > 50 µM | > 50 µM | > 50 µM | 49.1 ± 0.85 µM | > 50 µM
– | – | – | – | – | 222 to 224 °C | 38.9 ± 2.1 µM | 44.7 ± 4.1 µM | > 50 µM | 25.7 ± 3.45 µM | COc1cc(NC(=O)COc2ccc(/C=C3\SC(=O)N(Cc4cccc5cc6ccccc6nc45)C3=O)cc2OC)cc(OC)c1 [Compound 13b, 2-(4-{[(5Z)-3-[(Acridin-4-yl)methyl]-2,4-dioxo-1,3-thiazolidin-5-ylidene]methyl}-2-methoxyphenoxy)-N-(3,5-dimethoxyphenyl)acetamide] | – | – | – | – | > 50 µM | 41.7 ± 0.8 µM | 43.6 ± 3.3 µM | 34.4 ± 2.45 µM | > 50 µM
> 50 µM | 23.1 ± 5.7 µM | 44.2 ± 4.1 µM | – | – | 228 to 230 °C (dec.) | – | – | > 50 µM | – | COc1cc(/C=C2\SC(=O)N(Cc3cccc4cc5ccccc5nc34)C2=O)ccc1OCC(=O)Nc1cc(OC)c(OC)c(OC)c1 [Compound 13c, 2-(4-{[(5Z)-3-[(Acridin-4-yl)methyl]-2,4-dioxo-1,3-thiazolidin-5-ylidene]methyl}-2-methoxyphenoxy)-N-(3,4,5-trimethoxyphenyl)acetamide] | – | – | – | > 50 µM | > 50 µM | > 50 µM | > 50 µM | 42.5 ± 0.25 µM | –
– | – | – | – | – | 217 to 218 °C | > 50 µM | 9.9 ± 1.7 µM | > 50 µM | 26.7 ± 3.8 µM | COc1cc(/C=C2\SC(=O)N(Cc3cccc4cc5ccccc5nc34)C2=O)ccc1OCC(=O)Nc1ccccc1C(F)(F)F [Compound 13e, 2-(4-{[(5Z)-3-[(Acridin-4-yl)methyl]-2,4-dioxo-1,3-thiazolidin-5-ylidene]methyl}-2-methoxyphenoxy)-N-[2-(trifluoromethyl)phenyl]acetamide] | – | – | – | – | > 50 µM | > 50 µM | 14.9 ± 0.16 µM | 35.2 ± 2.87 µM | > 50 µM
– | 36.3 ± 4.6 µM | – | – | – | 203 to 205 °C | > 50 µM | – | > 50 µM | 21.8 ± 6.4 µM | COc1cc(/C=C2\SC(=O)N(Cc3cccc4cc5ccccc5nc34)C2=O)ccc1OCC(=O)Nc1cccc(C(F)(F)F)c1 [Compound 13f, 2-(4-{[(5Z)-3-[(Acridin-4-yl)methyl]-2,4-dioxo-1,3-thiazolidin-5-ylidene]methyl}-2-methoxyphenoxy)-N-[3-(trifluoromethyl)phenyl]acetamide] | – | – | – | – | > 50 µM | > 50 µM | 28.9 ± 5.6 µM | 31.9 ± 4.1 µM | > 50 µM
– | 24.9 ± 3.5 µM | – | – | – | 249 to 250 °C | > 50 µM | – | > 50 µM | 17.7 ± 2.9 µM | COc1cc(/C=C2\SC(=O)N(Cc3cccc4cc5ccccc5nc34)C2=O)ccc1OCC(=O)Nc1cc(C(F)(F)F)cc(C(F)(F)F)c1 [Compound 13g, 2-(4-{[(5Z)-3-[(Acridin-4-yl)methyl]-2,4-dioxo-1,3-thiazolidin-5-ylidene]methyl}-2-methoxyphenoxy)-N-[3,5-bis(trifluoromethyl)phenyl]acetamide] | – | – | – | – | > 50 µM | > 50 µM | > 50 µM | > 50 µM | > 50 µM
